Reference: ChEMBL document CHEMBL5385847, “Design, synthesis and biological evaluation of a new class of 7H-pyrrolo[2,3-d]pyrimidine derivatives as Mps1 inhibitors for the treatment of breast cancer” (Eur J Med Chem, 2023)
The source made the active and inactive calls. The calls are words filed in the database; no cut-off is given here.

Key:
[1] = biological target: T1, Dual specificity protein kinase TTK (Homo sapiens) (UniProt P33981); assay: Inhibition of Mps1 phosphorylation in mouse 4T1-Luc cells xenografted in BALB/C mouse at 30 to 60 mg/kg, po qd treated for 15 days by IHC analysis; format: organism-based; conditions: dose 30-60 mg/kg, time 15.0 day
T1 sequence (whole entry): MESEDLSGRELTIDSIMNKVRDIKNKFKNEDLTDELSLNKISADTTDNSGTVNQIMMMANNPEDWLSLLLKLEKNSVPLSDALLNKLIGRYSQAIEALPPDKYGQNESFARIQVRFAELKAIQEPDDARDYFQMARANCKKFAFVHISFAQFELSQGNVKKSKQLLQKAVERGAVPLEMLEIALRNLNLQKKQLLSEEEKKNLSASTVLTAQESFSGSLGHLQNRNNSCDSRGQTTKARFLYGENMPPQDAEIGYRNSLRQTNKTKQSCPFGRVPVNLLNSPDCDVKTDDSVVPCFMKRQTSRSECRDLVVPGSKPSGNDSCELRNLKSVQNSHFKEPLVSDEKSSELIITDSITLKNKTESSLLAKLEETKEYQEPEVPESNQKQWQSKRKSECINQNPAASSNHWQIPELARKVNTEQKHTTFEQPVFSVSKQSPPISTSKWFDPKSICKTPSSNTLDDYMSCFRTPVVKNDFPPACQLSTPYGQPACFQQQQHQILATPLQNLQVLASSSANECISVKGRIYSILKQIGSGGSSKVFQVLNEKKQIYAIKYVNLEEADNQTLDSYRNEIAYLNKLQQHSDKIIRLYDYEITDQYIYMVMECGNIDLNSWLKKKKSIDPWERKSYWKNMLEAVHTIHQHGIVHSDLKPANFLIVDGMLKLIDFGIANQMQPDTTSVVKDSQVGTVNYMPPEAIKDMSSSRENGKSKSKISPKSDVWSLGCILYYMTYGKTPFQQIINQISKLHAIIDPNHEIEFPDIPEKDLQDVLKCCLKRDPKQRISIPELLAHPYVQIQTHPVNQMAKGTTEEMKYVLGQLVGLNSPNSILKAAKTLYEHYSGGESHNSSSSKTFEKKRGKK

4T1 [2] = assay: Induction of DNA damage in 4T1 cells assessed as increase in gamma-H2AX level incubated for 2 hrs by Western blot analysis; format: functional, cell-based; conditions: Mus musculus, dose <= 3.0 µM
[3] = Toxicity in BALB/C mouse xenografted with mouse 4T1-Luc cells assessed as histological change in lung at 30 to 60 mg/kg, po qd treated for 15 days by H and E staining based analysis; format: organism-based; conditions: in vivo, 360 h, dose 30-60 mg/kg, time 15 day
MCF7 [4] = assay: Induction of DNA damage in human MCF7 cells assessed as increase in gamma-H2AX level incubated for 2 hrs by Western blot analysis; format: functional, cell-based; conditions: dose <= 3.0 µM
4T1 [5] = assay: Induction of apoptosis in 4T1 cells assessed as increase in cleaved caspase-3 level upto 3 uM incubated for 48 hrs by Western blot analysis; format: functional, cell-based; conditions: Mus musculus
4T1 [6] = assay: Induction of apoptosis in 4T1 cells assessed as increase in cleaved PARP level upto 3 uM incubated for 48 hrs by Western blot analysis; format: functional, cell-based; conditions: Mus musculus
4T1 [7] = assay: Induction of apoptosis in 4T1 cells assessed as necrotic cells at 5 uM incubated for 48 hrs by Annexin V-FITC/PI staining based flow cytometry (reference value: 0.20 %); format: functional, Mus musculus
4T1 [8] = assay: Induction of apoptosis in 4T1 cells assessed as early apoptotic cells at 1 uM incubated for 48 hrs by Annexin V-FITC/PI staining based flow cytometry (reference value: 0.32 %); format: functional, Mus musculus
4T1 [9] = assay: Induction of apoptosis in 4T1 cells assessed as late apoptotic cells at 0.5 uM incubated for 48 hrs by Annexin V-FITC/PI staining based flow cytometry (reference value: 1.73 %); format: functional, Mus musculus
4T1 [10] = assay: Induction of apoptosis in 4T1 cells assessed as early apoptotic cells at 0.5 uM incubated for 48 hrs by Annexin V-FITC/PI staining based flow cytometry (reference value: 0.32 %); format: functional, Mus musculus
MCF7 [11] = assay: Induction of apoptosis in human MCF7 cells assessed as early apoptotic cells at 1 uM incubated for 48 hrs by Annexin V-FITC/PI staining based flow cytometry (reference value: 1.19 %); format: functional
4T1 [12] = assay: Induction of cell cycle arrest in 4T1 cells at G2/M phase assessed as decrease in cyclin B1 level incubated for 24 hrs by Western blot analysis; format: functional, cell-based; conditions: Mus musculus, dose <= 3.0 µM
4T1 [13] = assay: Induction of cell cycle arrest in 4T1 cells at G2/M phase incubated for 24 hrs by Annexin V/PI staining based flow cytometry; format: functional; conditions: Mus musculus, dose <= 5.0 µM
MCF7 [14] = assay: Induction of cell cycle arrest in human MCF7 cells at G2/M phase incubated for 24 hrs by Annexin V/PI staining based flow cytometry; format: functional; conditions: dose <= 5.0 µM
4T1 [15] = assay: Antiproliferative activity against 4T1 cells upto 5 uM measured after 14 days by colony formation assay; format: functional, cell-based; conditions: Mus musculus, time 14.0 day
MCF7 [16] = assay: Antiproliferative activity against human MCF7 cells upto 5 uM measured after 14 days by colony formation assay; format: functional, cell-based; conditions: time 14.0 day
4T1 [17] = assay: Antiproliferative activity against 4T1 cells assessed as inhibition of cell viability incubated for 24 to 72 hrs by MTT assay; format: functional, cell-based; conditions: Mus musculus, dose <= 10.0 µM, time 24-72 hrs
AGS [18] = assay: Antiproliferative activity against human AGS cells assessed as inhibition of cell viability upto 10 uM incubated for 72 hrs by MTT assay; format: functional, cell-based
A549 = assay: Antiproliferative activity against human A549 cells assessed as inhibition of cell viability upto 10 uM incubated for 72 hrs by MTT assay; format: functional, cell-based
AGS [19] = assay: Antiproliferative activity against human AGS cells assessed as inhibition of cell viability by MTT assay; format: functional, cell-based
OVCAR-3 = assay: Antiproliferative activity against human OVCAR-3 cells assessed as inhibition of cell viability by MTT assay; format: functional, cell-based
MCF7 [20] = assay: Antiproliferative activity against human MCF7 cells assessed as inhibition of cell viability by MTT assay; format: functional, cell-based
[21] = tested on: Tyrosine-protein kinase ABL1 (Homo sapiens), P00519 [T315I]; assay: Inhibition of human Abl T315I mutant at 0.1 uM by KINOMEscan assay relative to control
[22] = biological target: T1, Dual specificity protein kinase TTK (Homo sapiens); assay: Inhibition of human Mps1 at 0.1 uM by KINOMEscan assay relative to control
[23] = biological target: Receptor-type tyrosine-protein kinase FLT3 (Homo sapiens) (UniProt P36888); assay: Inhibition of human FLT3 at 0.1 uM by KINOMEscan assay relative to control
Chain of Receptor-type tyrosine-protein kinase FLT3 (Homo sapiens) (P36888 whole entry): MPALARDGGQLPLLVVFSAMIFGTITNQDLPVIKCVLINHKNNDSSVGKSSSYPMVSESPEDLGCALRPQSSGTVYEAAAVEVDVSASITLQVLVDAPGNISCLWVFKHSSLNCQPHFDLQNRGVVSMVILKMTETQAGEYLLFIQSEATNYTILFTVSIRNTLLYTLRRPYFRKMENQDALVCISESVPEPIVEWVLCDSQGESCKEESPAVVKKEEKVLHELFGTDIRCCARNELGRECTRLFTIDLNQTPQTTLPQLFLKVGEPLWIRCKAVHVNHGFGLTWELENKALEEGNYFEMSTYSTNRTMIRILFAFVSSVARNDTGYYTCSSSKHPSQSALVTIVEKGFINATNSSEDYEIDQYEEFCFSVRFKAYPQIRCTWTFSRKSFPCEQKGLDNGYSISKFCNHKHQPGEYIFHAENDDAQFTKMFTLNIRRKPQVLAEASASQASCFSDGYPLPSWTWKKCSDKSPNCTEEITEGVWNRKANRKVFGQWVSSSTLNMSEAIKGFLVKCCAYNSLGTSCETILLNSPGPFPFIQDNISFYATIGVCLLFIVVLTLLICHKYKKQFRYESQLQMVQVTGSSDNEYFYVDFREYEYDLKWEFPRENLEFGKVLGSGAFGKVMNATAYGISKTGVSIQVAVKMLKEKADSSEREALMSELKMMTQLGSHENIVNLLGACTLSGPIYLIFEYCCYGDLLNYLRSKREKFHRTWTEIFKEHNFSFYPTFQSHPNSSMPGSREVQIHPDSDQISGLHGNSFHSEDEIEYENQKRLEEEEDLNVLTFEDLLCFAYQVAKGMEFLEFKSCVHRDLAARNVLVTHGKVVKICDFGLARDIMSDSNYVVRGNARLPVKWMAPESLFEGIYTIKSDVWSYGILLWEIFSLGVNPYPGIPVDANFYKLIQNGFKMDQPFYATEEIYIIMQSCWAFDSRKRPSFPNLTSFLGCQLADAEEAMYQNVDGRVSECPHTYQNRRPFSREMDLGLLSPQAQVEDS

[24] = biological target: Angiopoietin-1 receptor (Homo sapiens) (UniProt Q02763); assay: Inhibition of human Tie2 at 0.1 uM by KINOMEscan assay relative to control
Chain of Angiopoietin-1 receptor (Homo sapiens) (Q02763 whole entry): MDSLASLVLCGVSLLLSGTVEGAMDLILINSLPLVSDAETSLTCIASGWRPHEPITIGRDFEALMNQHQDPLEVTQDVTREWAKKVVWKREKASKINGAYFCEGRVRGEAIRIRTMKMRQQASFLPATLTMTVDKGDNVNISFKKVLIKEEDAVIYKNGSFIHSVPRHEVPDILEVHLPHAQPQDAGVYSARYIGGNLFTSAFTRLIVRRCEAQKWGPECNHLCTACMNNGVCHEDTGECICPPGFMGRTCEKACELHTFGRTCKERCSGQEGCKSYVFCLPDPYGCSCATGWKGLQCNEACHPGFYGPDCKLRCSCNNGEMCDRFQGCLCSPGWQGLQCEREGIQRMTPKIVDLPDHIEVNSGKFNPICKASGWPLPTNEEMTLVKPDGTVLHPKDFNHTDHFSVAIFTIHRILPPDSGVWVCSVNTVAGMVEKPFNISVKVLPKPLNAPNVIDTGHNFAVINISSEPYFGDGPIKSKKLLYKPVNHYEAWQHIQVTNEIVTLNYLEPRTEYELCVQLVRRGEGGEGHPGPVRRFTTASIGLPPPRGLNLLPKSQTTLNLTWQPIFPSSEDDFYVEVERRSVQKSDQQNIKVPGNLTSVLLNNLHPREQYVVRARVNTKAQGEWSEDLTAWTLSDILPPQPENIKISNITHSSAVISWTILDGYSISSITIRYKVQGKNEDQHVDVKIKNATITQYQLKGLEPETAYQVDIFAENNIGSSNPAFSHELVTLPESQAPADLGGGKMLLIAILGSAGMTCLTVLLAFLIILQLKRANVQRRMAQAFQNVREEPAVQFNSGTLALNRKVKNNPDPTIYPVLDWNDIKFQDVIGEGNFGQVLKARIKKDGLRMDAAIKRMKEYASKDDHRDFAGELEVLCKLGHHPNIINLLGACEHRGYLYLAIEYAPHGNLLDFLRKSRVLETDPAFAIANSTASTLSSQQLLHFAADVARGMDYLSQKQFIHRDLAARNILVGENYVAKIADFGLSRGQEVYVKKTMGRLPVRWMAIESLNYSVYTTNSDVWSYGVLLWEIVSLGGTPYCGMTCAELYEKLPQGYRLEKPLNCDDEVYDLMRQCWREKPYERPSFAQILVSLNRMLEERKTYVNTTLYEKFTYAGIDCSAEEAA

[25] = biological target: Receptor-type tyrosine-protein kinase FLT3 (Homo sapiens) (UniProt P36888); assay: Inhibition of human FLT3 at 1 uM by KINOMEscan assay relative to control
[26] = biological target: Proto-oncogene tyrosine-protein kinase Src (Homo sapiens) (UniProt P12931); assay: Inhibition of human cSRC at 1 uM by KINOMEscan assay relative to control
Chain of Proto-oncogene tyrosine-protein kinase Src (Homo sapiens) (P12931 2-536 limits assumed): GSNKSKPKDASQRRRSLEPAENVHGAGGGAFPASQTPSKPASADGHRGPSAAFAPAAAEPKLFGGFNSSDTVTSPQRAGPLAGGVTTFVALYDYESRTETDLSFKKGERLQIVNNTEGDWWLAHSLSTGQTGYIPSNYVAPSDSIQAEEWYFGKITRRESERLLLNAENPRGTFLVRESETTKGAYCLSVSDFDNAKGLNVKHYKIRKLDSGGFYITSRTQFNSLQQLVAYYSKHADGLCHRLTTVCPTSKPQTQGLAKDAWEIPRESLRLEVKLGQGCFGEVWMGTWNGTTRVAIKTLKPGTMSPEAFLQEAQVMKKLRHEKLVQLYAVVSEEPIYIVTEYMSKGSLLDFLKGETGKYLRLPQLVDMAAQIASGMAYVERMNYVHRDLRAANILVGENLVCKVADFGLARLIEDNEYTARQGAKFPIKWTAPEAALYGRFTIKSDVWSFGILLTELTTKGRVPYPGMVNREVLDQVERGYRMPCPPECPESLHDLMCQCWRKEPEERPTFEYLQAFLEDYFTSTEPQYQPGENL

[27] = biological target: Tyrosine-protein kinase Yes (Homo sapiens) (UniProt P07947); assay: Inhibition of human Yes at 0.1 uM by KINOMEscan assay relative to control
Chain of Tyrosine-protein kinase Yes (Homo sapiens) (P07947 2-543 limits assumed): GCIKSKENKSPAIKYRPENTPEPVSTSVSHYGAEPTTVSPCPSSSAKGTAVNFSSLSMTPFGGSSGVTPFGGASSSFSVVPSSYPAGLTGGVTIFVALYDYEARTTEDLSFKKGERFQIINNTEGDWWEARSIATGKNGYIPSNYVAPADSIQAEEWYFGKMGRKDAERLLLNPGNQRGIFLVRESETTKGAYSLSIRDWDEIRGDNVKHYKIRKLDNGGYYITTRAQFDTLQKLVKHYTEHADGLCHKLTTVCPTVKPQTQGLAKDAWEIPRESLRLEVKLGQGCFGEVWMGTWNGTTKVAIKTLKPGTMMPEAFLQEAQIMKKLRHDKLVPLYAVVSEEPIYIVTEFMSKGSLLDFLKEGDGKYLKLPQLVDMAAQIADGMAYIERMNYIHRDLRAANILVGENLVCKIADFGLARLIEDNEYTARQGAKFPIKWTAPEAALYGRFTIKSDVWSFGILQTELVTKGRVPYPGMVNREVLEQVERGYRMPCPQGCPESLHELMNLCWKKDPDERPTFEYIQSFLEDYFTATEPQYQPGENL

inhibition [1]: Active | IC50 (AGS [19]): > 3 µM | IC50 (OVCAR-3): > 3 µM | IC50 (MCF7 [20]): 0.37 µM | inhibition [21]: 40% | inhibition [22]: 87% | inhibition [23]: 86% | inhibition [24]: 28% | inhibition [25]: 92% | inhibition [26]: 96% | inhibition [27]: 80%
SMILES: CN1CCN(c2ccc(Nc3nc(-n4nc(N)c5ccccc54)c4cc[nH]c4n3)cc2)CC1
Activity (4T1 [2]): Dose-Dependent Effect | Activity [3]: Non-Toxic | Activity (MCF7 [4]): Dose-Dependent Effect | Activity (4T1 [5]): Active | Activity (4T1 [6]): Active | Activity (4T1 [7]): 0.32% | Activity (4T1 [8]): 1.61% | Activity (4T1 [9]): 5.41% | Activity (4T1 [10]): 1.17% | Activity (MCF7 [11]): 6.54% | Activity (4T1 [12]): Dose-Dependent Effect | Activity (4T1 [13]): Dose-Dependent Effect | Activity (MCF7 [14]): Dose-Dependent Effect | Activity (4T1 [15]): Active | Activity (MCF7 [16]): Active | inhibition (4T1 [17]): Dose-Dependent Effect | inhibition (AGS [18]): Active | inhibition (A549): Active
